# From paper PMC12921516 (ACS Bio & Med Chem Au, 2025)
# Like-named read-outs stand apart in the source and are kept apart here.
# Assays:
# [1] = molecular target: T1, hPTP1B1–400 (Homo sapiens, UniProt P18031); assay: Enzymatic kinetics studies (Lineweaver–Burk, model fitting); type: biochemical; conditions: for inhibition type: hPTP1B1–400, best fit model; for Km / Vmax: hPTP1B1–400 with inhibitor
# T1 construct: h PTP1B 1–400 IC 50 (μM ± S.D); made in house
# T1 sequence (P18031 1-400): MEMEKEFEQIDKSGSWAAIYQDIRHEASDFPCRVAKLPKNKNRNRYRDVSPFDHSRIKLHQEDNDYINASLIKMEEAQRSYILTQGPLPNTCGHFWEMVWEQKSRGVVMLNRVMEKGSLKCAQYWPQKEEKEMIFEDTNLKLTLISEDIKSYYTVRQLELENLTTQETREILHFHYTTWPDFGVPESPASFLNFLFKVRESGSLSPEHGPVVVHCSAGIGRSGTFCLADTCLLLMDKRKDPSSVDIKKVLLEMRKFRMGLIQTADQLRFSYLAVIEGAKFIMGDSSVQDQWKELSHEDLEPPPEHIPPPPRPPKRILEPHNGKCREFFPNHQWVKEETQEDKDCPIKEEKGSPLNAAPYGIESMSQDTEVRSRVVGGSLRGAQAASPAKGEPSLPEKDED
# Experimental: Kinetic analyses were conducted using varying concentrations of substrate and inhibitor.
# Five increasing concentrations of each inhibitor were tested, according to their previously determined IC50 values. The negative control was prepared by omitting the inhibitor in the presence of the enzyme and substrate. The Supporting Information includes detailed eqs (E1–E5) used to determine the kinetic parameters and mechanisms involved in PTP1B inhibition.
# Equation 1 was used to obtain enzyme kinetic parameters by fitting data to the Michaelis-Menten model (Origin Pro
# The equations defined for the following non-linear inhibition models were used to determine the mechanism of
# PTP1B inhibition: competitive (E2), non-competitive (E3), uncompetitive (E4), and mixed (E5) (Origin Pro 2018 (64
# (1+ ( ))(x05nh ) + (1+ ( )) (x05 nh)
# Vmax is the maximum velocity, x is the substrate concentration, i is the inhibitor concentration, nh is the number of
# Hill. Ki is the inhibition constant, and Km is the Michaelis constant.
# [2] = test system: hPTP1B1–393; conditions: reported elsewhere; cited from earlier work
# [3] = molecular target: T2, hTCPTP1–415 (Homo sapiens, UniProt P17706); assay: TCPTP inhibitory activity; type: biochemical; conditions: pNPP substrate; tested up to 100 μM
# T2 construct: h TCPTP 1–415 IC 50 (μM ± S.D); made in house
# T2 sequence (P17706 1-415): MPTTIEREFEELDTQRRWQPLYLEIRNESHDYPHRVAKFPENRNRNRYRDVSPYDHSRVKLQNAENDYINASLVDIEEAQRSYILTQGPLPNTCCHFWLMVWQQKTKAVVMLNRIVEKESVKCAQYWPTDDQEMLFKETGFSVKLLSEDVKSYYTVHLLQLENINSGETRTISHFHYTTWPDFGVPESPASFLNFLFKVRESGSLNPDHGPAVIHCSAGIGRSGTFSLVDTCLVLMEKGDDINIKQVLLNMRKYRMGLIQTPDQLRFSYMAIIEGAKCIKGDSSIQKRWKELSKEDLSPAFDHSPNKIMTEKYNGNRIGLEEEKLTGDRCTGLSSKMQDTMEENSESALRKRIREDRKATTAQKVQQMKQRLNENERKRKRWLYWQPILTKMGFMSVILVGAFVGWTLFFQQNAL
# Experimental: The effectiveness and safety of a PTP1B inhibitor primarily depend on its selectivity, given that protein tyrosine phosphatases share significant structural homology within their catalytic domains. […] Ertiprotafib was also included in this study.
# (§1) Aliquots of 0–10 μL of the test compounds (triplicate) were taken and incubated for 15 min at 37 °C with 85 μL of Tris buffer solution (50 mM, pH 6.8) containing PTP1B enzyme and 5 μL of p-nitrophenyl phosphate substrate (pNPP, 10 mM). The absorbance of the hydrolysis product, p-nitrophenol (pNP), was measured at 405 nm using a 96-microplate absorbance reader (Accuris SmartReader 96). The inhibitory activity was determined according to eq . %enzyme=(A405b/A405c)×100 1 Where: % enzyme is the percentage of inhibition for PTP1B or TCPTP
# (§2) The IC50 was calculated using regression analysis, eq : %inhibition=A100/1+(I/IC50)^s 2 Where: A100: Maximum inhibition
# [4] = test system: STZ-induced diabetic rats; conditions: earlier study of the group; cited from earlier work
# [5] = molecular target: T1, hPTP1B1–400; assay: PTP1B inhibition, pNPP hydrolysis, long form; type: biochemical; conditions: pNPP substrate, 15 min 37 °C, pH 6.8; ± S.D
# Experimental: The inhibitory activity of PTP1B was assessed using the long form of the PTP1B enzyme (hPTP1B1–400). This enzyme comprises a highly conserved N-terminal catalytic domain, known as the PTP domain (PTP1B1–300), in addition to an intrinsically disordered regulatory domain (PTP1B301–400).
# The IC50 values obtained from these tests are detailed in Table .
# as §1, §2
# [6] = test system: HFF-1 cells; assay: Cytotoxicity, Sulforhodamine B assay; type: cell-based, human; conditions: HFF-1 proliferation, 48-h incubation, 0.78 μM to 100 μM
# Experimental: Given the significance of a drug candidate’s toxicity in relation to its inhibition potential, a cytotoxicity assay was conducted using Normal Human Foreskin Fibroblasts (HFF-1).
# All assays were carried out in triplicate. Cell proliferation was determined by the Sulforhodamine B assay, and the half-maximal cytotoxic concentration (CC50) was determined by Probit analysis.
# [7] = molecular target: T3, hPTP1B1–285 (Homo sapiens, UniProt P18031); conditions: footnote c: IC50 values retrieved from the reference; cited from earlier work
# T3 construct: h PTP1B 1–285 IC 50 (μM ± S.D); made in house
# T3 sequence (P18031 1-285): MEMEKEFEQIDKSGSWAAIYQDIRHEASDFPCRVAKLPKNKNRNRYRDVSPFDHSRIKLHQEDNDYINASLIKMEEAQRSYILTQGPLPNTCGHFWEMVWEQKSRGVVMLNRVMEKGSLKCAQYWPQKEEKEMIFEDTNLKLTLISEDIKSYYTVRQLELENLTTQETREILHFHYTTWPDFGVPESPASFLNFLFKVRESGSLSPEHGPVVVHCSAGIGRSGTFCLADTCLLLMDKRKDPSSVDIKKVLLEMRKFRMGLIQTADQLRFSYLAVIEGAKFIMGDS
# [8] = molecular target: T2, hTCPTP1–415; conditions: read-out: hTCPTP1–415 IC50, cited from earlier work
# [9] = molecular target: T1, hPTP1B1–400; conditions: footnote c: IC50 values retrieved from the reference; previously tested by our group; cited from earlier work
# [10] = test system: HepG2 cells; assay: Cell viability of HepG2 with crystal violet; type: cell-based, human; conditions: 1, 10, and 30 µM for 24, 48 and 72 h
# Experimental: A 96-well plate was seeded with 3,000 HepG2 cells per well and incubated for 72 h. Subsequently, the cells were treated with test compounds at various concentrations for 24, 48, and 72 h. After incubation, the medium was removed, and 100 μL of 1% glutaraldehyde was added for 15 min. The glutaraldehyde was then removed, and 50 μL of 0.5% crystal violet (dissolved in 25% methanol) was added for 30 min. The crystal violet staining solution was subsequently removed, and the plate was thoroughly rinsed with tap water. The precipitate was dissolved in a 10% acetic acid solution, mixed for 15 min, and the absorbance was measured at 590 nm using a plate reader (xMark Microplate Spectrophotometer, Bio-Rad).
# Figure S48. Cell viability assessment by crystal violet staining. HepG2 cell viability was evaluated after treatment with the respective compounds at concentrations of 1 , 10, and 30 µM for 24 , 48 and 72 hours. Bar graphs represent mean ± SEM. No significant differences were detected using ANOVA. […]
# [11] = test system: insulin-resistant HepG2 cells; assay: Western blotting, insulin-resistant HepG2 model; type: cell-based, human; conditions: 24 h
# Experimental: (§3) HepG2 cells were obtained directly from ATCC (HB-8065) and cultured in DMEM with low glucose, supplemented with fetal bovine serum, 100 U/mL penicillin G, and […] streptomycin. The media was freshly prepared and sterilized by filtration. Cells were maintained with a maximum of 10 passages before being discarded. For cell counting, the cells were washed twice with phosphate-buffered saline (PBS), trypsinized, and counted using a Neubauer chamber. For the insulin-resistant model, 75,000 cells per well were seeded in 6-well plates at 37 °C in 5% CO2 and cultured for 72 h. Subsequently, insulin (0.1 μM) was added to induce insulin resistance for 24 h. After this period, inhibitors were incubated for 24 h, followed by a final 30 min insulin stimulation (0.1 μM) before protein extraction. For the normal model, 75,000 cells per well were seeded in 6-well plates at 37 °C in 5% CO2 and cultured for 96 h. After that, the cells were incubated with the inhibitors for 24 h, followed by protein extraction.
# (§4) Treated cells were washed twice with 1 mL of PBS, and proteins were extracted using 300 μL of a buffer solution containing 10% sodium deoxycholate in 10% TEAB, supplemented with a protease and phosphatase inhibitor cocktail. The extracts were heated at 80 °C for 5 min and dissociated by repeated passages through an insulin syringe. The cell extracts were centrifuged at 15,000 rpm for 15 min at 4 °C, and the supernatant was collected. Protein quantification was performed using the bicinchoninic acid assay, and aliquots were prepared for Western blotting. SDS-PAGE was conducted, and proteins were transferred onto a nitrocellulose membrane. The membrane was blocked with 10% skim milk in TBST for 1 h and incubated overnight with primary antibodies (1:400 dilution). Secondary antibodies conjugated to horseradish peroxidase were diluted 1:2,000, and the membranes were incubated for 1 h at room temperature. Blots were visualized using the ChemiDoc MP (Bio-Rad), and densitometric analysis was performed with ImageJ (U.S. National Institutes of Health). Statistical analyses were conducted using GraphPad Prism 8.0.
# resistance model in HepG2 cells . a) Western blotting representative analysis (n=3) of PTP1B, p -AKT, p-IRS1 and p-STAT3 levels
# of HepG2 cells treated with the compounds at 24 h of treatment. β-actin was employed as loading control. b) Densitometric
# analysis of western blot images employing ImageJ analysis software. Bar graphs represent the mean ± SEM of normalized values.
# The control levels were set to 1. Asterisks indicate statistical significance according to the Dunn test. p* < 0.05.
# (§5) (1 picture or pasted object on this page, not shown here)
# [12] = test system: HepG2 cells; assay: Western blotting, HepG2 normal model; type: cell-based, human; conditions: 24 h
# Experimental: as §3, §4
# compounds at 24 h of treatment. β-actin was employed as loading control. b) Densitometric analysis of western blot images
# employing ImageJ analysis software. Bar graphs represent the mean ± SEM of normalized values. The control levels were set to
# 1. Asterisks indicate statistical significance according to the Dunn test. p* < 0.05
# as §5
# [13] = molecular target: T1, hPTP1B1–400; assay: PTP1B inhibition, pNPP hydrolysis, long form; type: biochemical
structure (smiles),measurement,setting,value
"Cc1cc(-c2c3ccccc3c(Br)c3sc(C)c(C)c23)cc(C)c1O[C@H](Cc1ccccc1)C(=O)O [Ertiprotafib, reference compound]",inhibition type,[1],uncompetitive
same,Km,[1],940 ± 190 µM
same,Vmax,[1],1.71 ± 0.24 mM/min
same,inhibition type,[2],noncompetitive inhibition
same,IC50,[3],> 100 µM
"CC1(C)c2[nH]c3ccc(C(F)(F)F)cc3c2C[C@]2(C)[C@H]3C(=O)C=C4[C@@H]5C[C@@](C)(C(=O)O)CC[C@]5(C)CC[C@@]4(C)[C@]3(C)CC[C@@H]12 [FC-114, reference compound]",antihyperglycemic effects,[4],"superior antihyperglycemic effects compared to glibenclamide and acarbose, but did not outperform pioglitazone"
same,IC50,[5],1.75 ± 0.08 µM
same,CC50,[6],59.5 ± 3 µM
O=C(O)C(=O)Nc1sc2c(c1C(=O)O)CCNC2 [TCS401],IC50,[7],12.4 ± 1 µM
same,IC50,"[8]; footnote c: IC50 values retrieved from the reference, previously tested by our group",6.7 ± 0.6 µM
same,IC50,[9],8.1 ± 1 µM
C[C@H]1[C@H](C)CC[C@]2(C(=O)O)CC[C@]3(C)C(=CC[C@@H]4[C@@]5(C)CC[C@H](O)C(C)(C)[C@@H]5CC[C@]43C)[C@H]12 [Ursolic acid],IC50,[8]; footnote b: IC50 values retrieved from the reference,> 400 µM
same,HepG2 cell viability,[10],No significant differences
same,AKT phosphorylation (p-AKT) levels,[11],did not show significant changes
same,PTP1B levels,[11],"neither metformin, ursolic acid, nor the GA derivatives significantly reduced PTP1B levels"
same,p-IRS levels,[11],did not show significant changes
same,p-STAT3 levels,[11],did not show significant changes
same,inhibition type,[1],mixed-type
same,inhibition type,[1]; listed as ursolic acid,mixed
same,Km,[1],1700 ± 330 µM
same,Vmax,[1],0.63 ± 0.08 mM/min
same,AKT phosphorylation (p-AKT) levels,[12],did not show significant changes
same,PTP1B levels,[12],"neither metformin, ursolic acid, nor the GA derivatives significantly reduced PTP1B levels"
same,p-IRS levels,[12],did not show significant changes
same,p-STAT3 levels,[12],did not show significant changes
"CC1(C)c2c(cnn2-c2ccc(C(=O)O)cc2)C[C@]2(C)[C@H]3C(=O)C=C4[C@@H]5C[C@@](C)(C(=O)O)CC[C@]5(C)CC[C@@]4(C)[C@]3(C)CC[C@@H]12 [compound 5e, (20β)-2′-(4-Carboxyphenyl)-11-oxo-2′H-oleana-2,12-dieno[3,2-c]pyrazol-29-oic Acid]",stability during evaluation,[13],unstable and rapidly degraded during evaluation
